Experimental data reported in patent US9657071B2, “IgE peptide vaccine” (NIPPON ZENYAKU KOGYO CO., LTD., priority 2012, dated 2017).

How the values were obtained:
Format in all cases: in vivo
peptide-specific IgG = assay: Peptide-specific IgG in serum of dogs given IgE peptide vaccine (ELISA); conditions: dog
Experimental: The peptide used was MOUSE CH3-4-17-11 (mouse CH3 region amino acid sequence) (SEQ ID NO: 27). 2 mL (500 μg) of a solution of the peptide (concentration: 250 μg/mL) and 2 mL of a complete adjuvant (DIFCO ADJUVANT COMPLETE FREUND, Becton, Dickinson and Company Japan) were dispensed to microtubes. Liquids (4 mL per animal) emulsified by shaking for 15 minutes in a high-speed shaker were used as IgE peptide vaccines.
The animals used were 1 male and 7 females of 5- to 7-month-old beagles and were divided into an administration group (n=4; 08-33, 08-42, 08-43, and 08-44) and a non-administration group (n=4; 08-45, 08-46, 08-47, and 08-48).
The peptide was administered at days 0 (test start date), 14, and 28 in the first course and further at days 106 and 117 in the second course. The test substance was subcutaneously administered to the necks of the 4 animals in the administration group. The non-administration group was untreated.
At days 0, 14, 28, 42, 56, 70, 77, 84, 98, 106, 117, 131, 145, and 152 (4 time points (0, 14, 28, and 42) were excluded for the non-administration group), blood was collected from the jugular vein of each individual using a syringe. After separation of serum, the serum was used to measure peptide-specific IgG concentrations and IgE-specific IgG concentrations in the serum.
Each antigenic protein (MOUSE CH3-4-17-11 for peptide-specific IgG assay, and human IgE for IgE-specific IgG assay) was prepared at 1 μg/mL in an immobilization buffer (0.05 M carbonate buffer, pH 9.6), then added at a concentration of 100 μL/well to an ELISA plate, and left overnight at 4° C. The immobilization plate was washed once with PBS-T (0.05%). A blocking solution (4× Block Ace, Snow Brand Milk Products Co., Ltd.; UK-B80) was added thereto at a concentration of 200 μL/well. The plate was blocked by incubation at 37° C. for 1.5 hours. The serum was diluted 5000-fold with a diluent (PBS-T:Block Ace=9:1) and used. […] Then, the measurement was performed using a plate reader (Bio-Rad Laboratories, Inc.; model 680) (dual: measurement: 450 nm, control: 570 nm).

dog IgE = assay: Reactivity of serum of peptide-immunized rabbit with dog IgE (ELISA); conditions: 500 μg peptide + complete adjuvant s.c.
Sequence of dog IgE (as listed by the source): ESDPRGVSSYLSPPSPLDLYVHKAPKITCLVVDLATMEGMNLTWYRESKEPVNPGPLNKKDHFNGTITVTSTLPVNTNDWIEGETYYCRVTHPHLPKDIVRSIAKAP
Experimental: (§1) 2 mL of the 250 μg/mL peptide (a total of 500 μg) used in Example 2 was mixed with an equal amount of a complete adjuvant (a total of 4 mL). Each rabbit was immunized with this mixture by the subcutaneous administration (amount of the peptide: 500 μg) at day 0 and weeks 2, 4, 6, and 8. Blood was collected 5 weeks after the week-8 administration (week 13 counted from day 0). Booster immunization was performed at week 14 counted from day 0, and blood was further collected 2 weeks thereafter (week 16 counted from day 0). Antibody titers in the collected blood were measured by ELISA. The serum of a rabbit that received no peptide was used as a control.
(§2) ELISA was performed by the following method: each […] recombinant CH3 solution of dog IgE, human IgE, mouse IgE, dog IgG, and cat IgE was immobilized at a concentration of 100 μL/well (100 ng/well) to a plate. The serum collected from the immunized rabbit was used (×200 to ×102400) as a primary antibody. An enzyme-labeled anti-rabbit IgG antibody (Zymed Laboratories Inc.) was used as a secondary antibody.

human IgE = assay: Reactivity of serum of peptide-immunized rabbit with human IgE (ELISA); conditions: 500 μg peptide + complete adjuvant s.c.
Experimental: as §1, §2

How did the “peptide-specific IgG concentrations in serum (O.D. values), one animal (08-44)” value (peptide-specific IgG; s.c., day 117 or later (second course)) turn out when “QEKKTSVSASQWYTKHHNNATTSIT (listed as Mus musculus) [MOUSE CH3-4-17-11]” was run?
Its value is at least 1.0 O.D.

And the “peptide-specific IgG in serum, administration group versus non-administration group” value (peptide-specific IgG; day 77, p<0.05)?
The value was “significantly higher”.

What about the “level of IgG antibody against the peptide” value (peptide-specific IgG; summary of FIG. 6) of the same sequence?
The value was “increased”.

What about the “response of immobilized dog IgE to peptide-administered rabbit serum” value (dog IgE) of the same sequence?
Its value is “responded”.

What about the “response of immobilized human IgE to peptide-administered rabbit serum” value (human IgE) of the same sequence?
The value was “responded”.
